Columns and labels:
Experiment in all cases: Species specificity: recombinant tagged GSK-3 orthologue kinase assay
GSK-3 [1] = biological target: T1, GSK-3 (Plasmodium knowlesi, UniProt A0A679KU36); type: biochemical; settings: read-out: IC50 Plasmodium knowlesi; calculated from dose-response curves
T1 sequence (A0A679KU36 1-473): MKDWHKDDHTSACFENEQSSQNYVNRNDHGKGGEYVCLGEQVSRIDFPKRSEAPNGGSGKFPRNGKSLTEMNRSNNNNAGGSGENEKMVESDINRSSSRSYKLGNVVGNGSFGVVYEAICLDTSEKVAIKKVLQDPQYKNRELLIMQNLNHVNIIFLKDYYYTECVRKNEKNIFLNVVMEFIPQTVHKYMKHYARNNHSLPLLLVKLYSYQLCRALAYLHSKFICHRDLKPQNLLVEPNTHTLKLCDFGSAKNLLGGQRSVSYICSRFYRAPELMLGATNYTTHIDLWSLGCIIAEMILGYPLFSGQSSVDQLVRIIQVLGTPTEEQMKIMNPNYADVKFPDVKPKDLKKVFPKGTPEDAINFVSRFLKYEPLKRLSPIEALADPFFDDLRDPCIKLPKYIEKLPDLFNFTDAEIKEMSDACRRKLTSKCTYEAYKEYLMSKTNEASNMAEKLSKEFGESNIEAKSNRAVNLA

GSK-3 [2] = biological target: T2, GSK-3 (Cryptosporidium parvum, UniProt A3FQN0); type: biochemical
T2 sequence (A3FQN0 1-433): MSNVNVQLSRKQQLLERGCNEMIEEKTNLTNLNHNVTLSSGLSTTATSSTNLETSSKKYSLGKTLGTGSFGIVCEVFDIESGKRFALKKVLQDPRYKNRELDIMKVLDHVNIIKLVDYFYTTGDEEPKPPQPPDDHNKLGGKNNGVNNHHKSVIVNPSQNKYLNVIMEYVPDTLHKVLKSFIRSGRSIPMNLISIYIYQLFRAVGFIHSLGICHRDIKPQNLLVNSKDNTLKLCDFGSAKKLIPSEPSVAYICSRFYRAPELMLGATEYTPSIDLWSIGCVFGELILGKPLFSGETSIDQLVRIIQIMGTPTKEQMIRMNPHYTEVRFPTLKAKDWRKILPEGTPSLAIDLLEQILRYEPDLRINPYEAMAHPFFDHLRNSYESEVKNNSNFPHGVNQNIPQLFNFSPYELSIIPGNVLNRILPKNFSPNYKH

GSK-3 [3] = biological target: T3, GSK-3 (Leishmania major, UniProt Q4QE15); type: biochemical, Leishmania majo
T3 construct: made in house
From the text: (§1) Given the strong conservation of GSK-3 across evolution and the surprising selectivity of the compounds according to the present invention towards PfGSK-3 versus mammalian GSK-3, a selection of 12 GSK-3 orthologues of various species chosen on the "tree of life" analyzed. The species belong to the Apicomplexa (P. falciparum, P. vivax, P. knowlesi and P. berghei (Gardner, M.J. et al. Genome sequence of the human malaria parasite Plasmodium falciparum. Nature 419, 498-511 (2002); Carlton, J.M. et al. Comparative genomics of the neglected human malaria parasite Plasmodium vivax. Nature 455, 799-803 (2008); Pain, A. et al. The genome of the simian and human malaria parasite Plasmodium knowlesi. Nature 455, 799-803 (2008).). Toxoplasma gondii (Qin, C.L., Tang, J. and Kim, K. Cloning and in vitro expression of TPK3, a Toxoplasma gondii homologue of shaggy/glycogen synthase kinase-3 kinases. Mol. Biochem. Parasitol. 93, 273-283 (1998)), Cryptosporidium parvum.
(§2) Following PCR amplification from cDNA libraries or direct synthesis based on databases sequences, the GSK-3 genes were inserted in appropriate expression vectors and recombinant, tagged kinases were expressed, affinity purified and assayed in the presence of up to 10-100µM of each compound of formula (I) according to the present invention and a selection of the PfGSK-3 inhibitors.

GSK-3 [4] = biological target: T4, GSK-3 (Trypanosoma cruzi, UniProt Q4E1X0); type: biochemical; settings: read-out: IC50 Trypanopsoma cruzi; calculated from dose-response curves; -(100) taken as no inhibition at 100
T4 sequence (Q4E1X0 1-353): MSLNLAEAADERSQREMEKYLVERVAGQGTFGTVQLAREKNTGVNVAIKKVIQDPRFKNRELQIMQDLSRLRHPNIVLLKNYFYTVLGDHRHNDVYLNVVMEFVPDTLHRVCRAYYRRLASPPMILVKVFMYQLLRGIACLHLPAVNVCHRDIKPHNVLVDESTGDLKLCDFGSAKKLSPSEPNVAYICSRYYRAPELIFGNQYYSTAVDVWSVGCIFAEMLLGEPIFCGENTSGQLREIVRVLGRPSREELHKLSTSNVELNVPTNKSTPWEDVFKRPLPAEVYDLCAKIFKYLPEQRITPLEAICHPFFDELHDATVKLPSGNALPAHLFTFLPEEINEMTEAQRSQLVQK

GSK-3 [5] = biological target: T5, GSK-3 (Dictyostelium discoideum, UniProt P51136); type: biochemical
T5 construct: made in house
From the text: as §1, §2

GSK-3 [6] = biological target: T6, GSK-3 (Plasmodium falciparum, UniProt O77344); type: biochemical
T6 construct: made in house
From the text: as §1, §2

GSK-3 α/β = type: biochemical; settings: calculated from dose-response curves; -(100) taken as no inhibition at 100; read-out: IC50 Sus scrofa (GSK-3 α/β)
From the text: as §1, §2

GSK-3 α = biological target: T7, GSK-3 α (Homo sapiens, UniProt P49840); type: biochemical; settings: calculated from dose-response curves; -(100) taken as no inhibition at 100
T7 construct: made in house
From the text: as §1, §2

GSK-3 [7] = biological target: T8, GSK-3 (Toxoplasma gondii, UniProt O44002); type: biochemical, Toxaplasma grondii
T8 sequence (O44002 1-394): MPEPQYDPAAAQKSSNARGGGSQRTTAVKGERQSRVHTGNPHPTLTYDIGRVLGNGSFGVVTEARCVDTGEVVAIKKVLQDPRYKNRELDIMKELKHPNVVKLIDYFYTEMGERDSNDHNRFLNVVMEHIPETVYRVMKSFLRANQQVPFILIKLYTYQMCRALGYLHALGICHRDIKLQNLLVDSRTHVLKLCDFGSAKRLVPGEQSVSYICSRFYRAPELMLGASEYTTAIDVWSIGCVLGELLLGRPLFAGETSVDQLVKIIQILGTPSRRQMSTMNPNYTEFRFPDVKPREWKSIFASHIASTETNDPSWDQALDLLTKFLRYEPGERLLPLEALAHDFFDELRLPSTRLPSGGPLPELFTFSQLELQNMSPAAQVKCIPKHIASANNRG

GSK-3 [8] = biological target: T9, GSK-3 (Leishmania donovani, UniProt A6N857); type: biochemical; settings: read-out: IC50 Leishmania donovani; calculated from dose-response curves
T9 sequence (A6N857 1-355): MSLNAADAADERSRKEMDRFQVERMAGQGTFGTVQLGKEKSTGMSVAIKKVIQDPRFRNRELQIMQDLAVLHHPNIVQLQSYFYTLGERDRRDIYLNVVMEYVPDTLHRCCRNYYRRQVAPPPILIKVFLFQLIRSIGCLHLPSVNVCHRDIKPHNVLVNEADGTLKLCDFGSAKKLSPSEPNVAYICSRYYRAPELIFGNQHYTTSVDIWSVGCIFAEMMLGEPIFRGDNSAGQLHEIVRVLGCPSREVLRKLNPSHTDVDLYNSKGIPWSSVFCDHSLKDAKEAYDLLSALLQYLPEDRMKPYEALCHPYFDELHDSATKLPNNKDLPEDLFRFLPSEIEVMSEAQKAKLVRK

T6 sequence (O77344 entry or part of it): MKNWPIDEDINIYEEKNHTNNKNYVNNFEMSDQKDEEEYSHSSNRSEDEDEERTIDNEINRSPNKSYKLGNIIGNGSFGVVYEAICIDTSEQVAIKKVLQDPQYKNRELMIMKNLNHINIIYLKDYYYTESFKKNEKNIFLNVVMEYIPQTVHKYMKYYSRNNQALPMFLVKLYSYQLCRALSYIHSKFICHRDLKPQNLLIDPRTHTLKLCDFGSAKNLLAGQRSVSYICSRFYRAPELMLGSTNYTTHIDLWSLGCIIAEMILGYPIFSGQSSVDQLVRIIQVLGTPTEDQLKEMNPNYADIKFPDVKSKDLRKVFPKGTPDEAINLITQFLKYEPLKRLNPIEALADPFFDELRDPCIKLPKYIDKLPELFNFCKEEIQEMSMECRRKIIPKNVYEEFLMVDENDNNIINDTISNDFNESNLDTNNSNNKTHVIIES
T3 sequence (Q4QE15 entry or part of it): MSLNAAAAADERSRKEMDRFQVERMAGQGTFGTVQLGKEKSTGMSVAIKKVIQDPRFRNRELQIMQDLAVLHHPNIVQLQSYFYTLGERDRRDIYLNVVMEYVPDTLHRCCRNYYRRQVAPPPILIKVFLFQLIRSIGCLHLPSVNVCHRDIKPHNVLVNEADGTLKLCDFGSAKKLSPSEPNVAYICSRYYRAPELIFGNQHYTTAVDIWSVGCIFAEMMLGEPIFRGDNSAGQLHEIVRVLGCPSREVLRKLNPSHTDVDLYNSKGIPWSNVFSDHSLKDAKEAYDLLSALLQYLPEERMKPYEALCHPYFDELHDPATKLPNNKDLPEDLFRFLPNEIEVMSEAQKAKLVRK
T7 sequence (P49840 whole entry): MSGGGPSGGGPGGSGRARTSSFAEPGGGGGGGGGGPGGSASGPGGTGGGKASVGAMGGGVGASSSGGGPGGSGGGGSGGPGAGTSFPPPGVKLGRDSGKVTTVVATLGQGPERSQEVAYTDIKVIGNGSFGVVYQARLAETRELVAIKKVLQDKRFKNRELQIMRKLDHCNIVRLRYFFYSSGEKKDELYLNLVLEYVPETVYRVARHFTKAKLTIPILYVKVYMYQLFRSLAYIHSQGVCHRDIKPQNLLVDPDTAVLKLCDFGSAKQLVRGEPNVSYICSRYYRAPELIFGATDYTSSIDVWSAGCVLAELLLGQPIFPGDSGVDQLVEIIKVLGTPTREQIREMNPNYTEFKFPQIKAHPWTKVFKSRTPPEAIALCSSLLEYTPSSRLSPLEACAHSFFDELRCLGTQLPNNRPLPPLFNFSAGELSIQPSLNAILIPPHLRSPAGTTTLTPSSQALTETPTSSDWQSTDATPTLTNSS
T5 sequence (P51136 whole entry): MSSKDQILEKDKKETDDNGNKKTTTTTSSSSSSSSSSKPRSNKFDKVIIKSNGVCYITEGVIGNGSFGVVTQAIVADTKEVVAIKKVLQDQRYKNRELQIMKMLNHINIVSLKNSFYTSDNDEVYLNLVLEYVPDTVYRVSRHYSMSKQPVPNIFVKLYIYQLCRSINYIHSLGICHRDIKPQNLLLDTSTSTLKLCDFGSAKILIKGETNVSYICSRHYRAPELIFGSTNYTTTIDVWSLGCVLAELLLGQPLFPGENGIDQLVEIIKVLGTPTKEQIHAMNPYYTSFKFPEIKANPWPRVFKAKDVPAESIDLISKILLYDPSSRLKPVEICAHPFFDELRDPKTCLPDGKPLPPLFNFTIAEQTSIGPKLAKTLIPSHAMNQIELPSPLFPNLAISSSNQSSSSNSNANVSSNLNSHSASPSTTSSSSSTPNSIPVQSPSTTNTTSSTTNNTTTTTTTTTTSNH

`N#Cc1c(N)nc2sc(C(=O)c3ccc(Cl)cc3)c(N)c2c1-c1ccccc1I` [Compound 1, 3,6-diamino-2-(4-chlorobenzoyl)-4-(2-iodophenyl)thieno[2,3-b]pyridine-5-carbonitrile] showed an IC50 (GSK-3 [1]) of 15.5 µM, an IC50 (GSK-3 [2]) of over 100 µM and an IC50 (GSK-3 [3]) of over 100 µM. The IC50 (GSK-3 [4]) was over 100 µM, the IC50 (GSK-3 [5]) was over 100 µM and the IC50 (GSK-3 [6]) was 1.9 µM. The IC50 (GSK-3 α/β) was over 100 µM, the IC50 (GSK-3 α) was over 100 µM and the IC50 (GSK-3 [7]) was over 100 µM. It also gave an IC50 (GSK-3 [8]) of 80 µM.

Source: EP2308883A1, “New derivatives of thieno[2,3-b]pyridine and 5,6,7,8 tetrahydrothieno[2,3 b]quinoline in particular useful in the treatment of malaria” (priority 2009, dated 2011)
